Results reported in ChEMBL document CHEMBL5674860, “Optimized Dual-Glo Assay to identify co-culture-induced drug vulnerabilities in 3D CRC models” (2024).

Legend:
Type in all cases: functional, Homo sapiens
Set-up in all cases: dose or concentration left out as unconfirmed
Colon cancer organoid [1] = assay: Optimized Dual-Glo assay to identify co-culture induced drug vulnerabilities using donated chemical probes and chemogenomics kinase set in O14 CRC organoid and F14 CAF mono and co-culture. […] Cell viability is reported both mono and co-culture models.
Colon cancer organoid [2] = assay: Optimized Dual-Glo assay to identify co-culture induced drug vulnerabilities using donated chemical probes and chemogenomics kinase set in O06 CRC organoid and F06 CAF mono and co-culture. […] Cell viability is reported both mono and co-culture models.
Colon cancer organoid [3] = assay: Optimized Dual-Glo assay to identify co-culture induced drug vulnerabilities using donated chemical probes and chemogenomics kinase set in O20 CRC organoid and F20 CAF mono and co-culture. […] Cell viability is reported both mono and co-culture models.
[4] = Culture type Co-Culture, Transduced with Lucferase2-P2A-EGFP lentivirus
[5] = Culture type Co-Culture, Transduced with Renilla-dsRed lentivirus
[6] = Culture type Mono-Culture, Transduced with Lucferase2-P2A-EGFP lentivirus
[7] = Culture type Mono-Culture, Transduced with Renilla-dsRed lentivirus

Compound	Cell Viability (Colon cancer organoid [1]; [4]) [%]	Cell Viability (Colon cancer organoid [1]; [5]) [%]	Cell Viability (Colon cancer organoid [1]; [6]) [%]	Cell Viability (Colon cancer organoid [1]; [7]) [%]	Cell Viability (Colon cancer organoid [2]; [4]) [%]	Cell Viability (Colon cancer organoid [2]; [5]) [%]	Cell Viability (Colon cancer organoid [2]; [6]) [%]	Cell Viability (Colon cancer organoid [2]; [7]) [%]	Cell Viability (Colon cancer organoid [3]; [4]) [%]	Cell Viability (Colon cancer organoid [3]; [5]) [%]	Cell Viability (Colon cancer organoid [3]; [6]) [%]	Cell Viability (Colon cancer organoid [3]; [7]) [%]
Cc1c(Nc2ccc(S(=O)(=O)N3CCN(C)CC3)cc2F)nc2ccc(-c3cnn(C4CC4)c3)cn2c1=O	89.9801	85.4908	97.5645	92.3914	106.525	138.146	47.9872	100.536	100.034	149.535	70.24	85.351
COc1ccccc1C(=O)Nc1cc2c(cc1N1CCNCC1C)n(C)c(=O)n2C (stereo not drawn)	109.979	135.305	100.033	95.8386	112.155	138.916	92.5462	113.336	130.677	107.173	124.631	104.05
Cc1cc(C)cc([C@@H]2c3cc(C)ccc3NC(=O)CN2C(=O)c2ccc(Br)s2)c1	88.8372	581.73	126.733	467.801	107.168	464.523	138.593	545.831	135.921	541.943	109.076	515.86
CN(C)[C@H]1CN(C2CCc3cccc(F)c32)C[C@@H]1c1ccc(N2CCN(S(C)(=O)=O)CC2)cc1 (stereo partly drawn)	85.2853	124.227	108.249	110.303	82.1891	127.07	99.7479	137.803	31.8041	145.189	62.1102	96.7919
CCC(=O)Nc1cccc(Oc2nc(Nc3ccc(N4CCN(C)CC4)cc3OC)ncc2Cl)c1	114.921	101.654	90.6079	93.4216	92.8013	94.5997	65.5336	70.4946	125.445	105.023	80.3355	88.9581
COCC(=O)NC/C=C/c1ccc2ncnc(Nc3ccc(Oc4ccc(C)nc4)c(C)c3)c2c1 [CP-724714]	60.8642	107.55	48.0446	87.9569	64.178	58.1065	46.8341	91.801	97.3561	94.0282	76.6577	85.6537
CN(C)CC#Cc1ccc(OCCCc2sc(N3CCc4cccc(C(=O)Nc5nc6ccccc6s5)c4C3)nc2C(=O)O)c(F)c1 [A-1155463]	48.5807	127.556	26.2999	75.159	0.3385	128.541	0.4136	37.2528	1.175	177.943	3.867	58.9374
FC(F)(F)c1ccc2c(c1)nc(-c1cccnc1)n2C1CC1 [MSD-CYP11B2-Negative-control]	79.1334	88.6801	68.2082	99.4361	103.115	83.1787	99.8949	100.759	98.8357	114.7	79.6989	74.5522
O=C(NCc1ncc(C(F)(F)F)cc1Cl)c1ccc2c(c1)C1(CCS(=O)(=O)CC1)[C@@H](C1CC1)N2S(=O)(=O)c1ccc(F)cc1 [BAY-786]	75.9207	99.8085	94.4221	104.267	112.409	138.316	97.377	88.5192	102.274	106.984	104.026	100.592
